Measured values reported in patent US20250235543A1, “MODIFIED PROTEINS AND PROTEIN DEGRADERS” (Cullgen (Shanghai), Inc., priority 2021, published 2025).

System: P300/CBP
Test: P300/CBP cellular protein degradation
Type: cell-based
Experimental: Cultured cells were washed with cold PBS once and lysed in cold RIPA buffer supplemented with protease inhibitors and phosphatase inhibitors (Beyotime Biotechnology). The solutions were then incubated at 4° C. for 30 min with gentle agitation to fully lysed cells. Cell lysates were centrifuged at 13,000 rpm for 10 min at 4° C. and pellets were discarded. Total protein concentrations in the lysates were determined following BCA assays (Beyotime Biotechnology). Cell lysates were mixed with Laemmli loading buffer and heated at 99° C. for 5 min. Proteins were resolved on SDS-PAGE and visualized using Western ECL Substrate kits on a ChemiDoc MP Imaging system (Bio-Rad). Protein bands were quantitated using the Image Lab software provided by Bio-Rad.

Row | Compound | P300/CBP Degradation (100 nM)
1 | CC(=O)N1CCc2c(c(N3CCCc4cc(-c5cnn(C)c5)c(C(F)F)cc43)nn2C2CCN(C(=O)CCCCC(=O)Nc3ccccc3C(=O)Nc3nc(C)c([N+](=O)[O-])s3)CC2)C1 [CPD-201, 2-(6-(4-(5-Acetyl-3-(7-(difluoromethyl)-6-(1-methyl-1H-pyrazol-4-yl)-3,4-dihydroquinolin-1(2H)-yl)-4,5,6,7-tetrahydro-1H-pyrazolo[4,3-c]pyridin-1-yl)piperidin-1-yl)-6-oxohexanamido)-N-(4-methyl-5-nitrothiazol-2-yl)benzamide] | D (degradation activity < 30%)
2 | CC(=O)N1CCc2c(c(N3CCCc4cc(-c5cnn(C)c5)c(C(F)F)cc43)nn2C2CCN(C(=O)CCCCCC(=O)Nc3ccccc3C(=O)Nc3nc(C)c([N+](=O)[O-])s3)CC2)C1 [CPD-202, 2-(7-(4-(5-Acetyl-3-(7-(difluoromethyl)-6-(1-methyl-1H-pyrazol-4-yl)-3,4-dihydroquinolin-1(2H)-yl)-4,5,6,7-tetrahydro-1H-pyrazolo[4,3-c]pyridin-1-yl)piperidin-1-yl)-7-oxoheptanamido)-N-(4-methyl-5-nitrothiazol-2-yl)benzamide] | D (degradation activity < 30%)
3 | CC(=O)N1CCc2c(c(N3CCCc4cc(-c5cnn(C)c5)c(C(F)F)cc43)nn2C2CCN(C(=O)CCCCCCC(=O)Nc3ccccc3C(=O)Nc3nc(C)c([N+](=O)[O-])s3)CC2)C1 [CPD-203, 2-(8-(4-(5-Acetyl-3-(7-(difluoromethyl)-6-(1-methyl-1H-pyrazol-4-yl)-3,4-dihydroquinolin-1(2H)-yl)-4,5,6,7-tetrahydro-1H-pyrazolo[4,3-c]pyridin-1-yl)piperidin-1-yl)-8-oxooctanamido)-N-(4-methyl-5-nitrothiazol-2-yl)benzamide] | D (degradation activity < 30%)
4 | CC(=O)N1CCc2c(c(N3CCCc4cc(-c5cnn(C)c5)c(C(F)F)cc43)nn2C2CCN(C(=O)CCCCCCCC(=O)Nc3ccccc3C(=O)Nc3nc(C)c([N+](=O)[O-])s3)CC2)C1 [CPD-204, 2-(9-(4-(5-Acetyl-3-(7-(difluoromethyl)-6-(1-methyl-1H-pyrazol-4-yl)-3,4-dihydroquinolin-1(2H)-yl)-4,5,6,7-tetrahydro-1H-pyrazolo[4,3-c]pyridin-1-yl)piperidin-1-yl)-9-oxononanamido)-N-(4-methyl-5-nitrothiazol-2-yl)benzamide] | D (degradation activity < 30%)
5 | CC(=O)N1CCc2c(c(N3CCCc4cc(-c5cnn(C)c5)c(C(F)F)cc43)nn2C2CCN(C(=O)CCCCCCCCC(=O)Nc3ccccc3C(=O)Nc3nc(C)c([N+](=O)[O-])s3)CC2)C1 [CPD-205, 2-(10-(4-(5-Acetyl-3-(7-(difluoromethyl)-6-(1-methyl-1H-pyrazol-4-yl)-3,4-dihydroquinolin-1(2H)-yl)-4,5,6,7-tetrahydro-1H-pyrazolo[4,3-c]pyridin-1-yl)piperidin-1-yl)-10-oxodecanamido)-N-(4-methyl-5-nitrothiazol-2-yl)benzamide] | D (degradation activity < 30%)
6 | CC(=O)N1CCc2c(c(N3CCCc4cc(-c5cnn(C)c5)c(C(F)F)cc43)nn2C2CCN(C(=O)CCCCCCCCCC(=O)Nc3ccccc3C(=O)Nc3nc(C)c([N+](=O)[O-])s3)CC2)C1 [CPD-206, 2-(11-(4-(5-Acetyl-3-(7-(difluoromethyl)-6-(1-methyl-1H-pyrazol-4-yl)-3,4-dihydroquinolin-1(2H)-yl)-4,5,6,7-tetrahydro-1H-pyrazolo[4,3-c]pyridin-1-yl)piperidin-1-yl)-11-oxoundecanamido)-N-(4-methyl-5-nitrothiazol-2-yl)benzamide] | D (degradation activity < 30%)
7 | CC(=O)N1CCc2c(c(N3CCCc4cc(-c5cnn(C)c5)c(C(F)F)cc43)nn2C2CCN(C(=O)CCCCCCCCCCC(=O)Nc3ccccc3C(=O)Nc3nc(C)c([N+](=O)[O-])s3)CC2)C1 [CPD-207, 2-(12-(4-(5-Acetyl-3-(7-(difluoromethyl)-6-(1-methyl-1H-pyrazol-4-yl)-3,4-dihydroquinolin-1(2H)-yl)-4,5,6,7-tetrahydro-1H-pyrazolo[4,3-c]pyridin-1-yl)piperidin-1-yl)-12-oxododecanamido)-N-(4-methyl-5-nitrothiazol-2-yl)benzamide] | D (degradation activity < 30%)
8 | CC(=O)N1CCc2c(c(N3CCCc4cc(-c5cnn(C)c5)c(C(F)F)cc43)nn2C2CCN(C(=O)CCCCCCCCCCCC(=O)Nc3ccccc3C(=O)Nc3nc(C)c([N+](=O)[O-])s3)CC2)C1 [CPD-208, 2-(13-(4-(5-Acetyl-3-(7-(difluoromethyl)-6-(1-methyl-1H-pyrazol-4-yl)-3,4-dihydroquinolin-1(2H)-yl)-4,5,6,7-tetrahydro-1H-pyrazolo[4,3-c]pyridin-1-yl)piperidin-1-yl)-13-oxotridecanamido)-N-(4-methyl-5-nitrothiazol-2-yl)benzamide] | D (degradation activity < 30%)
9 | CC(=O)N1CCc2c(c(N3CCCc4cc(-c5cnn(C)c5)c(C(F)F)cc43)nn2C2CCN(CC(=O)NCC(=O)Nc3ccccc3C(=O)Nc3nc(C)c([N+](=O)[O-])s3)CC2)C1 [CPD-209, 2-(2-(2-(4-(5-Acetyl-3-(7-(difluoromethyl)-6-(1-methyl-1H-pyrazol-4-yl)-3,4-dihydroquinolin-1(2H)-yl)-4,5,6,7-tetrahydro-1H-pyrazolo[4,3-c]pyridin-1-yl)piperidin-1-yl)acetamido)acetamido)-N-(4-methyl-5-nitrothiazol-2-yl)benzamide] | D (degradation activity < 30%)
10 | CC(=O)N1CCc2c(c(N3CCCc4cc(-c5cnn(C)c5)c(C(F)F)cc43)nn2C2CCN(CC(=O)NCCC(=O)Nc3ccccc3C(=O)Nc3nc(C)c([N+](=O)[O-])s3)CC2)C1 [CPD-210, 2-(3-(2-(4-(5-Acetyl-3-(7-(difluoromethyl)-6-(1-methyl-1H-pyrazol-4-yl)-3,4-dihydroquinolin-1(2H)-yl)-4,5,6,7-tetrahydro-1H-pyrazolo[4,3-c]pyridin-1-yl)piperidin-1-yl)acetamido)propanamido)-N-(4-methyl-5-nitrothiazol-2-yl)benzamide] | D (degradation activity < 30%)
11 | CC(=O)N1CCc2c(c(N3CCCc4cc(-c5cnn(C)c5)c(C(F)F)cc43)nn2C2CCN(CC(=O)NCCCC(=O)Nc3ccccc3C(=O)Nc3nc(C)c([N+](=O)[O-])s3)CC2)C1 [CPD-211, 2-(4-(2-(4-(5-Acetyl-3-(7-(difluoromethyl)-6-(1-methyl-1H-pyrazol-4-yl)-3,4-dihydroquinolin-1(2H)-yl)-4,5,6,7-tetrahydro-1H-pyrazolo[4,3-c]pyridin-1-yl)piperidin-1-yl)acetamido)butanamido)-N-(4-methyl-5-nitrothiazol-2-yl)benzamide] | D (degradation activity < 30%)
12 | CC(=O)N1CCc2c(c(N3CCCc4cc(-c5cnn(C)c5)c(C(F)F)cc43)nn2C2CCN(CC(=O)NCCCCC(=O)Nc3ccccc3C(=O)Nc3nc(C)c([N+](=O)[O-])s3)CC2)C1 [CPD-212, 2-(5-(2-(4-(5-Acetyl-3-(7-(difluoromethyl)-6-(1-methyl-1H-pyrazol-4-yl)-3,4-dihydroquinolin-1(2H)-yl)-4,5,6,7-tetrahydro-1H-pyrazolo[4,3-c]pyridin-1-yl)piperidin-1-yl)acetamido)pentanamido)-N-(4-methyl-5-nitrothiazol-2-yl)benzamide] | D (degradation activity < 30%)
13 | CC(=O)N1CCc2c(c(N3CCCc4cc(-c5cnn(C)c5)c(C(F)F)cc43)nn2C2CCN(CC(=O)NCCCCCC(=O)Nc3ccccc3C(=O)Nc3nc(C)c([N+](=O)[O-])s3)CC2)C1 [CPD-213, 2-(6-(2-(4-(5-Acetyl-3-(7-(difluoromethyl)-6-(1-methyl-1H-pyrazol-4-yl)-3,4-dihydroquinolin-1(2H)-yl)-4,5,6,7-tetrahydro-1H-pyrazolo[4,3-c]pyridin-1-yl)piperidin-1-yl)acetamido)hexanamido)-N-(4-methyl-5-nitrothiazol-2-yl)benzamide] | D (degradation activity < 30%)
14 | CC(=O)N1CCc2c(c(N3CCCc4cc(-c5cnn(C)c5)c(C(F)F)cc43)nn2C2CCN(CC(=O)NCCCCCCC(=O)Nc3ccccc3C(=O)Nc3nc(C)c([N+](=O)[O-])s3)CC2)C1 [CPD-214, 2-(7-(2-(4-(5-Acetyl-3-(7-(difluoromethyl)-6-(1-methyl-1H-pyrazol-4-yl)-3,4-dihydroquinolin-1(2H)-yl)-4,5,6,7-tetrahydro-1H-pyrazolo[4,3-c]pyridin-1-yl)piperidin-1-yl)acetamido)heptanamido)-N-(4-methyl-5-nitrothiazol-2-yl)benzamide] | D (degradation activity < 30%)
15 | CC(=O)N1CCc2c(c(N3CCCc4cc(-c5cnn(C)c5)c(C(F)F)cc43)nn2C2CCN(CC(=O)NCCCCCCCC(=O)Nc3ccccc3C(=O)Nc3nc(C)c([N+](=O)[O-])s3)CC2)C1 [CPD-215, 2-(8-(2-(4-(5-Acetyl-3-(7-(difluoromethyl)-6-(1-methyl-1H-pyrazol-4-yl)-3,4-dihydroquinolin-1(2H)-yl)-4,5,6,7-tetrahydro-1H-pyrazolo[4,3-c]pyridin-1-yl)piperidin-1-yl)acetamido)octanamido)-N-(4-methyl-5-nitrothiazol-2-yl)benzamide] | D (degradation activity < 30%)
16 | CC(=O)N1CCc2c(c(N3CCCc4cc(-c5cnn(C)c5)c(C(F)F)cc43)nn2C2CCN(CC(=O)NCCCCCCCCC(=O)Nc3ccccc3C(=O)Nc3nc(C)c([N+](=O)[O-])s3)CC2)C1 [CPD-216, 2-(9-(2-(4-(5-Acetyl-3-(7-(difluoromethyl)-6-(1-methyl-1H-pyrazol-4-yl)-3,4-dihydroquinolin-1(2H)-yl)-4,5,6,7-tetrahydro-1H-pyrazolo[4,3-c]pyridin-1-yl)piperidin-1-yl)acetamido)nonanamido)-N-(4-methyl-5-nitrothiazol-2-yl)benzamide] | D (degradation activity < 30%)
